How the values were obtained:
cathepsin B = cathepsin B (Homo sapiens, UniProt P07858); assay: Cathepsin B-responsive fluorescence activation; format: biochemical; conditions: 1 μM, cathepsin B only (1 unit mL-1), pH 5.0 buffer, 0.1% Tween 80, 37 °C
Protocol: To examine the response of PMB 1 toward MMP-2 and cathepsin B, its absorption and fluorescence spectra were monitored in the presence of these stimuli at 37 °C over a period of 25 h, using the non-cleavable analogue 14 as the negative control. For studying the MMP-2-responsive effect, MMP-2 (2 μg mL^–1) in PBS at pH 7.4 was used to mimic the high serum levels of this enzyme in patients with cancer.[68] The effect of cathepsin B (using a concentration of 1 unit mL^–1) was studied in the working buffer mentioned above at pH 5.0 to mimic the lysosomal environment.[69] […] Similar results were obtained for the study using cathepsin B in the buffer (Figure S8e–h). […] The more flexible ring-opening structure, however, might slightly increase the separation of the two moieties, leading to a lower FRET efficiency,[70] which could explain the small increase in fluorescence intensity. […] As expected, both the absorption and fluorescence spectra were not changed toward these two enzymes (Figure S9).
The fluorescence recovery was then determined for 1 under the aforementioned conditions, assuming that the fluorescence intensity of 8 at the same concentration in the same medium was the maximum fluorescence intensity that could be recovered. […]
All of the solutions were stirred continuously at 37 °C. The ir electronic absorption and fluorescence spectra were monitored over a period of 25 h. […]

[1] = tested on: A549 tumor-bearing nude mice; assay: In vivo fluorescence activation in tumor; parameters: species or system Balb/c nude mice; conditions: 6 h post-injection; intratumoral, 20 nmol in 20 μL water with 7.5% DMSO and 0.5% Tween 80; excitation 680 nm, emission ≥700 nm; n = 4
Protocol: The in vivo activation of 1 in terms of fluorescence emission was further investigated using A549 tumor-bearing nude mice as the animal model and the non-cleavable analogue 14 as the negative control. […] The fluorescence intensity per unit area of the tumor was also determined at different time points for both conjugates (Figure 7b). […] At 6 h post-injection, the intensity of 1 was 4.3-fold higher than that of 14, showing that the former could be activated through enzymatic cleavage of the two peptide segments by the intrinsic MMP-2 and cathepsin B in the tumor, while the latter remained largely quenched due to its non-cleavable nature. […]
taken by a microplate reader (Tecan Spark 10M) at ambient temperature. The average […]
of the other wells. The cell viability was then determined by the equation: […]
where Ai is the absorbance of the ith datum (i = 1, 2, …, n), Acontrol is the average absorbance of the control wells in which the compound was absent, and n (= 4) is the number of data points.
Female Balb/c nude mice (20–25 g) were obtained from the Laboratory Animal Services Centre at The Chinese University of Hong Kong. […] In vivo fluorescence imaging was performed before and after […]
A549 tumor-bearing nude mice were prepared as described above. The length and width of the tumor were measured using a micrometer digital caliper (SCITOP Systems). […]

SMILES: CCN(CC)c1ccc2nc3ccc(/N=N/c4ccc(N(C)CCCNC(=O)OC[C@@H]5[C@@H]6CCc7nnn(CC(=O)NCCCC[C@@H]8NC(=O)CNC(=O)[C@H](CCCCN)NC(=O)[C@H](CCCNC(=N)N)NC(=O)[C@H](C(C)C)NC(=O)CNC(=O)[C@H](CC(C)C)NC(=O)[C@@H]9CCCN9C(=O)[C@H](CCCCN)NC(=O)[C@@H](N)CSCc9cc(COc%10ccc(C%11=C%12C(C)=C(I)C(/C=C/c%13ccc(OCCOCCOCCOC)cc%13)=[N+]%12[B-](F)(F)n%12c(/C=C/c%13ccc(OCCOCCOCCOC)cc%13)c(I)c(C)c%12%11)cc%10)cc(c9)CSC[C@@H](C(N)=O)NC(=O)[C@H](CCCCN)NC(=O)[C@H](CCCCN)NC(=O)CNC(=O)[C@H](CC(C)C)NC(=O)[C@H](Cc9ccccc9)NC(=O)CNC(=O)[C@H](CCCCN)NC(=O)CNC8=O)c7CC[C@@H]65)cc4)cc3[n+](-c3ccccc3)c2c1 [compound 1]
- on/off ratio (fluorescence intensity at 25 h / initial intensity) (cathepsin B): ca. 2.7
- tumoral fluorescence intensity relative to that of 14 [1]: 4.3 fold
